Measured values as given in patent US20080260714A1, “Fibrin Compositions Containing Strontium Compounds” (BAXTER INTERNATIONAL INC., priority 2007, published 2008).

What was measured:
[1] = tested on: osteosarcoma cell line UMR-106; settings: for PTH bioactivity: 24 h pre-incubation of UMR-106 cells with 20 mM salt prior to TGplPTH treatment, five experiments; for synergistic effect with PTH in generation of cAMP: UMR-106 osteoblast cells, 20 mM salt
Protocol: The present example describes in vitro studies on rat osteosarcoma cells to investigate if a combination of parathyroid hormone (PTH) and Strontium (used as SrCl2) on activation of bone formation factors like increased cAMP production in osteoblasts.
The osteosarcoma cell line UMR-106 (NewLab Bioquality AG, Erkrath, Germany) was used to perform the bioassay.
UMR-106 cells were seeded in growth medium at a density of 30000 cells/cm^2 and incubated at 37° C./8.0% CO2 After 24 hours, medium was exchanged with either fresh medium, medium containing 20 mM SrCl2 or medium containing 20 mM CaCl2. Cells were further incubated at 37° C./8.0% CO2 for 24 hours. Cells were harvested according to the following procedure:
Cells were washed twice with HBSS and detached from the surface using 6 ml trypsine/EDTA for 3 min at room temperature. Trypsin digestion was stopped with 12 ml growth medium. Following centrifugation (3 min, 1000 rpm, RT) cells were resuspended in 12 ml starvation medium and counted with a CASY cell counter. The rate of dead cells was below 10% in every experiment. Cells were resuspended to a final concentration of 1.6×10^6 cells/ml in starvation medium. 50 μl of cell suspension was transferred into each well of a 96-well plate and incubated for 30 min at 37° C., 8.0% CO2.
Samples were diluted in freshly prepared starvation medium containing 2 mM IBMX (SI medium). For preparation of SI-medium 30 μl of a 0.67M IBMX stock in DMSO was added to 10 ml of starvation medium.
All sample dilutions were prepared with this medium to inhibit phosphodiesterase activity in UMR-106 cells (Janik, P., 1980; Chasin M. and Harris, D. N., 1976). 50 μl of diluted samples (as indicated in results) were added to the cells after 30 min incubation at 37° C. For cAMP production cells were incubated for 1 h at 37° C., 8.0% CO2. Each sample concentration was added to cells at least in duplicates following cAMP analysis in duplicates.
Cell lysis and dilution of cAMP For extraction of cAMP 100 μl of cell suspension containing PTH was incubated with 25 μl (final dilution 1:5) lysis reagent solvent 1A that is part of the cAMP Biotrak EIA kit (GE Healthcare). For total lysis, cells were shaken for 15 min at 500 rpm at room temperature. […]
Data analysis. The optical density was determined in a plate reader (Synergy HT) by measuring the absorbance of the samples at 450 nm using the software KC4. […]
cAMP concentration of the samples. Taking into account the dilution factor (20×) the produced cAMP amounts were calculated using the parameters (slope and intercept) of the standard curve.
Preparation of Samples for Bioassay Analysis. […] For all samples and all dilutions, mean values of OD450, standard deviations, cAMP concentrations and coefficients of variations were calculated.

SaOS-2 cell = tested on: SaOS-2 cell
Protocol: For the initial experiments, cells were seeded on the surface of clots.

[2] = tested on: human osteoblast-like cells (SaOS-2); assay: alkaline phosphatase production of cells grown on fibrin clots; assay type: cell-based; settings: SaOS-2 on clots containing strontium; production over 30 minutes; preliminary result
Protocol: (§1) For in-vitro experiments, the clots were prepared by pipetting 150 μl of the fibrinogen solution to the wells of a 24 well plate. The plate was put on plate shaker to ensure an even distribution over the well bottom. 150 μl of the thrombin solution was then added to the well and the plate was put on a plate shaker to ensure homogeneous clots. A human osteoblast-like cell line (SaoS-2) was cultured on the clots for up to 7 days to see if any differences in cell proliferation/cell differentiation could be observed.
These experiments are being repeated with a 14 day investigative period.

[3] = turbidimetric analysis of clots; assay type: physicochemical; settings: strontium containing clots in comparison to calcium containing clots
Protocol: In addition to the cell studies observation, turbidmetric analysis was carried out to examine if the clot structure was altered as a result of the strontium (FIG. 4) The clot turbidity is directly proportional to average cross-sectional area of the fibres, therefore the more turbid the clot the greater the fiber diameter.

[4] = tested on: human osteoblast-like cells (SaOS-2); assay: Alamar Blue proliferation of cells grown on fibrin clots; assay type: cell-based; settings: SaOS-2 on clots up to 7 days; Sr salt in thrombin dilution buffer; compared to normal clot with 20 mM CaCl2
Protocol: as §1

| Structure (SMILES) | PTH bioactivity [1] | synergistic effect with PTH in generation of cAMP [1] | time at which cell death occurs (SaOS-2 cell; SaOS-2, 12.5 mM CaCl2 in medium) [h] | cell survival / proliferation (MTS assay) (SaOS-2 cell; SaOS-2 on tissue culture plastic, medium with 12.5 mM Sr or Ca) | alkaline phosphatase expression [2] | clot turbidity (kinetics and absorbance) [3] | proliferation (Alamar Blue) [4] |
| --- | --- | --- | --- | --- | --- | --- | --- |
| [Ca+2].[Cl-].[Cl-] [CaCl2, calcium chloride, reference compound] | no change in PTH bioactivity | No such effect | ≤ 24 | Cell death |  |  |  |
| CC(=O)[O-].CC(=O)[O-].[Sr+2] [Strontium Acetate] |  |  |  |  | appear not to be significant |  |  |
| [Cl-].[Cl-].[Sr+2] [SrCl2, Strontium Chloride] | twofold increased bioactivity | positive synergistic effect |  |  | increase in alkaline phosphatase expression | very little difference in the kinetics and absorbance | significant increased proliferation |
